The term Ki denotes a measure of affinity in units of concentration, obtained from inhibition or displacement. A high value points to lower affinity.

Experiment [1] concerns the target HPK1 (Homo sapiens (Human), UniProt Q92918). The experiment can be described thus: biochemical. It counts as binding.
In experiment [2] the target is HPK1 (Homo sapiens (Human), UniProt Q92918, S171E/T165E). Briefly: biochemical.

On HPK1 [1], `Cc1c(NC(C)C)cncc1-c1cc(N)c2cnc(NC(=O)[C@@H]3C[C@H]3C#N)cc2c1` (racemic) [Compound 186, (±)-trans-N-(8-amino-6-[4-methyl-5-[(propan-2-yl)amino]pyridin-3-yl]isoquinolin-3-yl)-2-cyanocyclopropane-1-carboxamide] gave an inhibition constant (Ki) of 6.96 nM. This lies in the single-digit nanomolar range. On to `Cc1c(N)cncc1-c1cc2cc(NC(=O)[C@@H]3C[C@H]3CC#N)ncc2c(N)c1Cl` (racemic) [Compound 209, (±)-trans-N-(8-amino-6-(5-amino-4-methylpyridin-3-yl)-7-chloroisoquinolin-3-yl)-2-(cyanomethyl)cyclopropanecarboxamide], for which affinity at HPK1 [1] was put at a Ki of 0.0405 nM.

`C[C@H]1Cc2c(cncc2-c2cc(N)c3cnc(NC(=O)C4CC4)cc3c2)N1` [Compound 189, (S)—N-(8-amino-6-(2-methyl-2,3-dihydro-1H-pyrrolo[2,3-c]pyridin-4-yl)isoquinolin-3-yl)cyclopropanecarboxamide]: at HPK1 [1], the affinity corresponds to a Ki of 5.44 nM. In the case of `Cc1ccncc1-c1cc2cc(Nc3cc4n(n3)CC(=O)N(C)CC43CC3)ncc2c(N)c1F` [Compound 228, 2′-((8-amino-7-fluoro-6-(4-methylpyridin-3-yl)isoquinolin-3-yl)amino)-6′-methyl-5′,6′-dihydrospiro[cyclopropane-1,4′-pyrazolo[1,5-d][1,4]diazepin]-7′(8′H)-one], at HPK1 [2], the affinity corresponds to a Ki of […].

Values taken from US11566003B2, “Isoquinolines as inhibitors of HPK1” (priority 2017, dated 2023).
